Reference: PMC9962735, “Synthesis and Cytotoxic Activity of the Derivatives of N-(Purin-6-yl)aminopolymethylene Carboxylic Acids and Related Compounds” (Molecules, 2023)

Legend:
[1] = system: A549 human non-small-cell lung carcinoma; experiment: MTT cytotoxicity assay, A549; format: cell-based; conditions: Homo sapiens; for CC50: A549, 72 h, A549, 72 h incubation, MTT; for viability at 100 µM: A549, 1 × 10^–4 M, mean ± SD (n = 3)
[2] = MTT cytotoxicity assay, A549; format: cell-based, human; conditions: human, read-out: SCI (selective cytotoxicity index)
[3] = system: Jurkat human acute T-lymphoblastic leukemia; experiment: MTT cytotoxicity assay, Jurkat; format: cell-based; conditions: Homo sapiens, Jurkat; for CC50: 72 h, 72 h incubation, MTT; for viability at 100 µM: 1 × 10^–4 M, mean ± SD (n = 3), read-out: Cell viability
[4] = MTT cytotoxicity assay, Jurkat; format: cell-based, human; conditions: human, read-out: SCI (selective cytotoxicity index)
[5] = MTT cytotoxicity assay, SNU-1; format: cell-based, human; conditions: human, read-out: SCI (selective cytotoxicity index)
[6] = system: SNU-1 human gastric carcinoma; experiment: MTT cytotoxicity assay, SNU-1; format: cell-based; conditions: Homo sapiens; for CC50: SNU1, 72 h, SNU-1, 72 h incubation, MTT; for viability at 100 µM: SNU1, SNU-1, 1 × 10^–4 M, mean ± SD (n = 3), read-out: Cell viability
[7] = system: 4T1 murine mammary carcinoma; experiment: MTT cytotoxicity assay, 4T1; format: cell-based; conditions: Mus musculus; for viability at 100 µM: 4T1, 1 × 10^–4 M, mean ± SD (n = 3), read-out: Cell viability; for CC50: 4T1, 72 h incubation, MTT, n = 3
Source text: (§1) The cytotoxicity of the test compounds was studied using the MTT assay against a number of cell lines: CT-26 murine colon carcinoma, 4T1 murine mammary carcinoma, MDA-MB-231 human breast adenocarcinoma, COLO201 human colorectal adenocarcinoma, HepG2 human hepatocellular carcinoma, A549 human non-small-cell lung carcinoma, SK-BR-3 human breast adenocarcinoma, SNU-1 human gastric carcinoma, Jurkat human acute T-lymphoblastic leukemia, and WI-38 human lung fibroblasts (normal cells). Doxorubicin (Dox) was used as a reference drug. Cells were incubated with test compounds for 72 h.
(§2) Cells were seeded in flat-bottomed 96-well plates at 10,000 cells per well (for A549, SNU-1, WI-38, CT-26, MDA-MB-231, 4T1, and HepG2 cells) or 20,000 cells per well (for SK-BR-3, Jurkat, and COLO201 cells) and cultivated in complete culture mediums (for composition of each medium, see the Supplementary Materials, Table S1) in a CO2 incubator at 37 °C. At the first stage of this study, the test compounds dissolved in DMSO were added to the wells with cells at final concentrations from 1 × 10^–4 to 1 × 10^–10 mol/L (A549, SK-BR-3, SNU-1, Jurkat, and WI-38) or 1 × 10^–3 to 1 × 10^–8 mol/L (CT-26, MDA-MB-231, 4T1, COLO201, and HepG2); DMSO concentration in the wells was finally 1%. A complete cultural medium and DMSO were added to the control wells at the same concentration as in the experimental wells; 0.1% Triton X-100 solution (10 µL) was added to the corresponding wells as a non-specific positive control. After adding the test compounds, the cells were incubated for 72 h in an atmosphere containing 5% CO2. After that, the nutrient medium was removed from each well (in the case of SK-BR-3, Jurkat, and COLO201, plates were pre-centrifuged at 1500 rpm for 6 min). A solution of the commercial anticancer agent Doxorubicin (Dox, Sigma-Aldrich, St. Louis, MO, USA) in DMSO was used as a reference drug. Then, 150 µL of a complete medium with the MTT reagent (PanEco, Moscow, Russia) at a concentration of 0.5 mg/mL was added and incubated for 2 h. Formazan crystals were dissolved in DMSO (200 µL) and the absorbance in the wells was measured at 540 nm and a reference wavelength of 650 nm (Sunrise, Tecan, Groding, Austria). Experiments were performed in three parallel runs. Cell viability after incubation in the presence of test compounds was calculated in relation to cell viability in the control wells according to the Formula (1):Cell viability (%) = (Aexp/Ac) × 100,(1) where Aexp is the optical density of solutions in the wells containing test compounds; Ac is the optical density of solutions in control wells without test compounds. For detailed information on cell viability of various cell lines, see the Supplementary Materials, Figures S21–S26.
(§3) At the second stage of this study, in order to more accurately calculate the CC50 (the half maximal inhibitory concentration), the cytotoxic effect of test compounds was evaluated at concentrations close to CC50 found at the first stage. The study of the cytotoxic activity of each substance towards the cells of each line was carried out in triplicate; the mean value was used to calculate CC50. The CC50 values were determined by non-linear regression analysis using Graph-Pad Prism7.

[8] = MTT cytotoxicity assay, 4T1; format: cell-based, murine; conditions: mouse (4T1) and human (WI-38); CC50 of WI-38 divided by CC50 of 4T1; read-out: SCI (selective cytotoxicity index)
Source text: as §1, §2, §3

[9] = system: COLO201 human colorectal adenocarcinoma; experiment: MTT cytotoxicity assay, COLO201; format: cell-based; conditions: Homo sapiens, COLO 201; for viability at 100 µM: COLO201, 1 × 10^–4 M, mean ± SD (n = 3), read-out: Cell viability; for CC50: COLO201, 72 h incubation, MTT, n = 3
Source text: as §1, §2, §3

[10] = MTT cytotoxicity assay, COLO201; format: cell-based, human; conditions: human; CC50 of WI-38 divided by CC50 of COLO201; read-out: SCI (selective cytotoxicity index)
Source text: as §1, §2, §3

[11] = MTT cytotoxicity assay, WI-38 normal cells; format: cell-based; conditions: human, WI-38 lung fibroblasts (normal cells); for CC50 at 72 h: WI-38, 72 h incubation, MTT; for viability at 72 h: WI-38, 1 × 10^–4 M, mean ± SD (n = 3), read-out: Cell viability
[12] = system: CT-26 murine colon carcinoma; experiment: MTT cytotoxicity assay, CT-26; format: cell-based; conditions: Mus musculus, CT26; for viability at 100 µM: CT-26, 1 × 10^–4 M, mean ± SD (n = 3), read-out: Cell viability; for CC50: CT-26, 72 h incubation, MTT, n = 3
Source text: as §1, §2, §3

[13] = MTT cytotoxicity assay, CT-26; format: cell-based, murine; conditions: mouse (CT-26) and human (WI-38); CC50 of WI-38 divided by CC50 of CT-26; read-out: SCI (selective cytotoxicity index)
Source text: as §1, §2, §3

[14] = system: MDA-MB-231 human breast adenocarcinoma; experiment: MTT cytotoxicity assay, MDA-MB-231; format: cell-based; conditions: Homo sapiens; for viability at 100 µM: MDA-MB-231, 1 × 10^–4 M, mean ± SD (n = 3), read-out: Cell viability; for CC50: MDA-MB-231, 72 h incubation, MTT, n = 3
Source text: as §1, §2, §3

[15] = MTT cytotoxicity assay, MDA-MB-231; format: cell-based, human; conditions: human; CC50 of WI-38 divided by CC50 of MDA-MB-231; read-out: SCI (selective cytotoxicity index)
Source text: as §1, §2, §3

[16] = CC50 of WI-38 divided by CC50 of A549 (Table 1)
[17] = CC50 of WI-38 divided by CC50 of Jurkat (Table 1)
[18] = CC50 of WI-38 divided by CC50 of SNU-1 (Table 1)

Row | SMILES | CC50 ([1]; n = 3 (Table 1)) | viability at 100 µM [1] | selectivity ratio at 72 h [2, 16] | CC50 ([3]; n = 3 (Table 1)) | viability at 100 µM [3] | selectivity ratio at 72 h [4, 17] | selectivity ratio at 72 h [5, 18] | CC50 ([6]; n = 3 (Table 1)) | viability at 100 µM [6] | viability at 100 µM [7] | CC50 [7] | selectivity ratio at 72 h [8] | viability at 100 µM [9] | CC50 [9] | selectivity ratio at 72 h [10] | CC50 at 72 h ([11]; n = 3) | viability at 72 h [11] | viability at 100 µM [12] | CC50 [12] | selectivity ratio at 72 h [13] | further results
1 | CC1COc2c(ccc(F)c2F)N1C(=O)CCCCCCCCCCNc1ncnc2[nH]cnc12 (centres unmarked) [Compound 1d] | 43 µM | 6 ± 1% | 0.49 | 8.5 µM | 10 ± 4% | 2.5 | 3 | 7 µM | 5 ± 1% | 2 ± 1% | 23 µM | 0.91 | 1 ± 1% | 0.68 µM | 31 | 21 µM | 21 ± 7% | 2 ± 1% | 19 µM | 1.1 | CC50 ([1]; n = 3 (Table 3)): 21 µM; selectivity ratio at 72 h ([2]; CC50 of WI-38 divided by CC50 of A549 (Table 3)): 1; CC50 ([3]; n = 3 (Table 3)): 10 µM; selectivity ratio at 72 h ([4]; CC50 of WI-38 divided by CC50 of Jurkat (Table 3)): 2.1; selectivity ratio at 72 h ([5]; CC50 of WI-38 divided by CC50 of SNU-1 (Table 3)): 10; CC50 ([6]; n = 3 (Table 3)): 2 µM; CC50 at 72 h ([11]; n = 3 (Table 3)): 21 µM; viability at 100 µM [14]: 4 ± 2%; CC50 [14]: 44 µM; selectivity ratio at 72 h [15]: 0.48
2 | CC1COc2c(ccc(F)c2F)N1C(=O)CCCCCCCNc1ncnc2[nH]cnc12 (centres unmarked) [Compound 1c] | 43 µM | 7 ± 1% | 1.2 | 8.5 µM | 8 ± 2% | 5.9 | 7.1 | 7 µM | 6 ± 2% | 2 ± 2% | 23 µM | 2.2 | 2 ± 1% | 0.68 µM | 73 | 50 µM | 21 ± 3% | 2 ± 1% | 19 µM | 2.6 | viability at 100 µM [14]: 5 ± 5%; CC50 [14]: 44 µM; selectivity ratio at 72 h [15]: 1.2
